This passage reports IC50 results from PubChem BioAssay AID624167 (Sanford-Burnham Center for Chemical Genomics, 2012).

Holding throughout (test): Peg3 promoter luciferase inhibitors, potency, dose response, cell-based, HeLa, CREF/GAPDH counter-screen panel (AID 624167)
For orientation: Counterscreens check selectivity or assay interference.

In test [1] the test system is PEG-3. Particulars: HeLa PEG-Prom luciferase reporter, overnight, CREF/GAPDH counter-screens. On the technique in general: In a reporter assay the amount or activity of a reporter protein is the signal.
Test [2] has as its target PEG-3 (UniProt Q6IN02). Particulars: HeLa PEG-Prom luciferase reporter, overnight, CREF/GAPDH counter-screens, mean of runs.
Test [3] concerns Rat fibroblasts (CREF). Particulars: CREF/GAPDH counter-screens.
The mark [4] stands for this setting: run 1, dose range 1, individual replicate IC50 per panel.
The mark [5] stands for this setting: run 2, dose range 1, individual replicate IC50 per panel.

The source made the active and inactive calls.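 Rule for the calls: active = mean IC50 for reducing PEG3 promoter reporter signal at or below a set limit, with IC50 above the limit in both counter screens; inactive = the rest, including counter screen hits.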

By IC50 is commonly meant the point on the concentration scale where inhibition reaches its midpoint.

PEG-3 (UniProt Q6IN02), sequence (Q6IN02 whole entry, looked up): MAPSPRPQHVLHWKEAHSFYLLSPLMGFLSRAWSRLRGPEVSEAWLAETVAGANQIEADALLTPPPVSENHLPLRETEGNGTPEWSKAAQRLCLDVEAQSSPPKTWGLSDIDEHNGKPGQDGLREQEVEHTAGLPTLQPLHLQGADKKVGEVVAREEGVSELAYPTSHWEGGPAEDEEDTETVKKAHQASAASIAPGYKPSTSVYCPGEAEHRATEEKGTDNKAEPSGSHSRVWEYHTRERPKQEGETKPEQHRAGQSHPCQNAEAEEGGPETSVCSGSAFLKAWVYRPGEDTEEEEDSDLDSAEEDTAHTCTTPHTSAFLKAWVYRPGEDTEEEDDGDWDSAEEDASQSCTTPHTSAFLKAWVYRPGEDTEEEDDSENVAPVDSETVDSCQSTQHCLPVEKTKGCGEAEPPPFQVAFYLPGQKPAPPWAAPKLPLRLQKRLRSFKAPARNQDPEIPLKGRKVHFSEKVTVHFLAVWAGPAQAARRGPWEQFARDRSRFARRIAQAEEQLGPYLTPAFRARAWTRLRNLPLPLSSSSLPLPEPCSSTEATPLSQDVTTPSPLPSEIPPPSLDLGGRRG

Consider `Cc1cc(C(=O)COC(=O)c2ccccc2O)c(C)n1Cc1cccs1`, for which the concentration for half-maximal inhibition (IC50) in test [1] (setting [4]) was 1790 nM; in test [1] (setting [5]), 4860 nM; in test [2], 3320 nM; in test [3] (mean of runs), 1360 nM; in test [3] (setting [4]) it was 812 nM; in test [3] (setting [5]) it was 1900 nM.
Consider `Cc1ccc2nc(-c3ccc(Br)cc3)cn2c1`, for which the IC50 in test [1] (setting [4]) was 3130 nM; in test [1] (setting [5]) it was 9070 nM; in test [2] it was 6100 nM; in test [3] (mean of runs) it was 7810 nM; in test [3] (setting [4]) it was 2920 nM; in test [3] (setting [5]), 12700 nM.
For the molecule `CCCSc1ccc2nc(-c3ccccc3)cn2c1`, the IC50 in test [1] (setting [4]) is 7010 nM; in test [1] (setting [5]), 9200 nM; in test [2], 8110 nM; in test [3] (mean of runs) it was 1530 nM; in test [3] (setting [4]), 1040 nM; in test [3] (setting [5]), 2030 nM.
Take `Cc1nc2cc(-c3ccccc3)sc2c(=O)n1N`: the IC50 is 1490 nM in test [1] (setting [4]); 1340 nM in test [1] (setting [5]); 1410 nM in test [2]; 3400 nM in test [3] (mean of runs); 3940 nM in test [3] (setting [4]); 2870 nM in test [3] (setting [5]).
For `C(=N\Nc1nc2ccccc2[nH]1)/c1ccccn1`, the 50% inhibitory concentration (IC50) in test [1] (setting [4]) was 4260 nM; in test [1] (setting [5]), 3870 nM; in test [2] it was 4060 nM; in test [3] (mean of runs), 1480 nM; in test [3] (setting [4]), 1140 nM; in test [3] (setting [5]) it was 1830 nM.
Take `COc1cccc(-c2sc3ccccc3c2-c2ccc(OCCN(C)C)cc2)c1`: the half-maximal inhibitory concentration (IC50) in test [1] (setting [4]) is 10000 nM; in test [1] (setting [5]) it was 7600 nM; in test [2], 8800 nM; in test [3] (mean of runs), 14400 nM; in test [3] (setting [4]), 14600 nM; in test [3] (setting [5]), 14200 nM.
In the case of `CC(C)Cc1ccc(C(C)C(N)=NCCc2ccccc2)cc1` (configuration not stated), the half-inhibitory concentration (IC50) in test [1] (setting [4]) was 12200 nM; in test [1] (setting [5]), 7190 nM; in test [2], 9700 nM; in test [3] (mean of runs) it was 13300 nM; in test [3] (setting [4]), 15000 nM; in test [3] (setting [5]), 11600 nM.
For the molecule `Cc1ccc2nc(NC(=O)c3ccccn3)sc2c1`, the IC50 in test [1] (setting [4]) is 1290 nM; in test [1] (setting [5]), 1180 nM; in test [2], 1240 nM; in test [3] (mean of runs), 830 nM; in test [3] (setting [4]), 564 nM; in test [3] (setting [5]), 1100 nM.
Regarding `S=C(NN=C(c1ccccc1)c1ccccn1)N(Cc1ccccn1)Cc1ccccn1`, the half-inhibitory concentration (IC50) in test [1] (setting [4]) is 2580 nM; in test [1] (setting [5]) it was 1800 nM; in test [2] it was 2190 nM; in test [3] (mean of runs), 6990 nM; in test [3] (setting [4]), 4590 nM; in test [3] (setting [5]) it was 9400 nM.
As for `Oc1c(I)cc(Cl)c2cccnc12`, the half-inhibitory concentration (IC50) is 7910 nM in test [1] (setting [4]); 23500 nM in test [1] (setting [5]); 15700 nM in test [2]; 17900 nM in test [3] (mean of runs); 15700 nM in test [3] (setting [4]); 20200 nM in test [3] (setting [5]).
For `O=C(O)c1cccc(COc2ccc(CO)cc2Cl)c1`, the half-maximal inhibitory concentration (IC50) in test [1] (setting [4]) is 202 nM; in test [1] (setting [5]), 581 nM; in test [2], 391 nM; in test [3] (mean of runs), 8350 nM; in test [3] (setting [4]) it was 8630 nM; in test [3] (setting [5]) it was 8080 nM.
With `Cc1ccc2nc(-c3ccccc3)cn2c1`, the 50% inhibitory concentration (IC50) in test [1] (setting [4]) was 1020 nM; in test [1] (setting [5]), 1010 nM; in test [2], 1010 nM; in test [3] (mean of runs) it was 783 nM; in test [3] (setting [4]), 619 nM; in test [3] (setting [5]), 948 nM.
Regarding `COc1ccc(C(=O)Nc2nc3ccccc3s2)c(OC)c1`, the IC50 was 2560 nM in test [1] (setting [4]); 950 nM in test [1] (setting [5]); 1750 nM in test [2]; 319 nM in test [3] (mean of runs); 328 nM in test [3] (setting [4]); 309 nM in test [3] (setting [5]).
With `O=c1c2ccccc2sc2ccc(C#CC3(O)CCCCC3)cc12`, the IC50 in test [1] (setting [4]) was 2930 nM; in test [1] (setting [5]), over 100000 nM; in test [3] (mean of runs) it was 1810 nM; in test [3] (setting [4]), 1360 nM; in test [3] (setting [5]) it was 2270 nM. In test [2], the IC50 result is “inactive”.
Consider `COC(=O)c1nn(-c2ccc3c(c2)CCN3C(C)=O)cc1O`, for which the IC50 was 3930 nM in test [1] (setting [4]); 5690 nM in test [1] (setting [5]); 4810 nM in test [2]; 4480 nM in test [3] (mean of runs); 5010 nM in test [3] (setting [4]); 3950 nM in test [3] (setting [5]).
`Cc1ccccc1OCC(=O)Nc1cccc(C(=O)O)c1`: the IC50 in test [1] (setting [4]) is 1600 nM; in test [1] (setting [5]), 2100 nM; in test [2], 1850 nM; in test [3] (mean of runs), 18400 nM; in test [3] (setting [4]), 35800 nM; in test [3] (setting [5]), 1110 nM.
In the case of `Cc1c(C)c2ccc(OCC(=O)Nc3ccccn3)c(C)c2oc1=O`, the IC50 was 1640 nM in test [1] (setting [4]); 767 nM in test [1] (setting [5]); 1200 nM in test [2]; 1650 nM in test [3] (mean of runs); 1440 nM in test [3] (setting [4]); 1860 nM in test [3] (setting [5]).
